Results: patent publication US20060025566A1, “Macrocyclic modulators of the ghrelin receptor” (Tranzyme Pharma Inc., priority 2003, published 2006)
Read-outs that look alike come from different tables or passages of the source.

Target: T1, human growth hormone secretagogue receptor (hGHS-R1a) (Homo sapiens, UniProt Q92847)
T1 construct: purchased PerkinElmer BioSignal #RBHGHSM, lot#1887; host or cells: HEK-293, stably transfected (membranes)
Assay: Competitive radioligand binding assay (ghrelin receptor), [125I]-ghrelin displacement on GHS-R/HEK 293 membranes
Conditions: [125I]-ghrelin competition, GHS-R/HEK 293 membranes
Experimental: The competitive binding assay at the human growth hormone secretagogue receptor (hGHS-R1a) was carried out analogously to assays described in the literature.
Multiscreen Harvest plates-GF/C (Millipore, #MAHFC 1H60) • 4. […] Bottom seal (Millipore, #MATAH0P00) • 7. […] Binding Buffer: 25 mM Hepes (pH 7.4), 1 mM CaCl2, 5 mM MgCl2, 2.5 mM EDTA, 0.4% BSA Assay Volumes
Competition experiments were performed in a 300 μl filtration assay format. • 1. 220 μL of membranes diluted in binding buffer • 2. 40 μL of compound diluted in binding buffer • 3. […] Compound Handling
Compounds were provided frozen on dry ice at a stock concentration of 10 mM diluted in 100% DMSO and stored at −80° C. until the day of testing. On the test day, compounds were allowed to thaw at rt O/N and then diluted in assay buffer according to the desired test concentrations.
Plates were sealed with TopSeal-A, vortexed gently and incubated at rt for 30 min. The reaction was arrested by filtering samples through Multiscreen Harvest plates (pre-soaked in 0.5% polyethyleneimine) using a Tomtec Harvester, washed 9 times with 500 μL of cold 50 mM Tris-HCl (pH 7.4, 4° C.), and then plates were air-dried in a fumehood for 30 min. A bottom seal was applied to the plates prior to the addition of 25 μL of MicroScint-0 to each well. […] Results were expressed as counts per minute (cpm).
Data were analyzed by GraphPad Prism (GraphPad Software, San Diego, Calif.) using a variable slope non-linear regression analysis.
• 1. […] Key Aspects of Method • 1. […] Results

[1] = binding activity at the human ghrelin receptor, read-out: Ki
[2] = Table 3A, read-out: Binding Activity at the Human Ghrelin Receptor

T1 sequence (Q92847 whole entry): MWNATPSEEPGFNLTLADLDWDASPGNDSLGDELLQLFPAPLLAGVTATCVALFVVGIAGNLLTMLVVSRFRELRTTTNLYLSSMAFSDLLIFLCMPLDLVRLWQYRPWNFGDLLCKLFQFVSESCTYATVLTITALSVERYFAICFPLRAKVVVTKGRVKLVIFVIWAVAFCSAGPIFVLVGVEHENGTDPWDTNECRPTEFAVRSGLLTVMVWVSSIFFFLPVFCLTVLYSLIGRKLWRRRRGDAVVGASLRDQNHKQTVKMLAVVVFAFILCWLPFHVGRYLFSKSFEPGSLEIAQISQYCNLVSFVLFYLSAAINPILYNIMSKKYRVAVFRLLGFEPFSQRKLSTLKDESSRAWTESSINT

| Structure (SMILES) | Ki [1] [nM] | Ki [2] [nM] |
| --- | --- | --- |
| CCC[C@@H]1NCCOc2ccccc2CCCNC(=O)CNC(=O)CN(C)C1=O [compound 51] | > 10000 |  |
| CCCC[C@H]1NC(=O)CN(C)C(=O)[C@H](CCC)NCCOc2ccccc2CCCNC1=O [compound 52] | 100 to 1000 |  |
| CCC[C@@H]1NCCOc2ccccc2CCCNC(=O)[C@@H](CCCN)NC(=O)CN(C)C1=O [compound 53] | > 10000 |  |
| CCC[C@@H]1NCCOc2ccccc2CCCNC(=O)[C@@H](Cc2ccccc2)NC(=O)[C@H](C)NC1=O [compound 59] | 1000 to 10000 |  |
| CCC[C@@H]1NCCOc2ccccc2CCCNC(=O)[C@@H](Cc2ccccc2)NC(=O)[C@@H](C)NC1=O [compound 60] | 100 to 1000 |  |
| CCC[C@@H]1NCCOc2ccccc2CCCNC(=O)[C@@H](Cc2ccccc2)NC(=O)CNC1=O [compound 61] | 100 to 1000 |  |
| CCC[C@@H]1NCCOc2ccccc2CCCNC(=O)[C@@H](Cc2ccccc2)NC(=O)[C@H](CC(C)C)NC1=O [compound 62] | 1000 to 10000 |  |
| CCC[C@@H]1NCCOc2ccccc2CCCNC(=O)[C@@H](Cc2ccccc2)NC(=O)[C@@H](CC(C)C)NC1=O [compound 63] | > 10000 |  |
| CCC[C@@H]1NCCOc2ccccc2CCCNC(=O)[C@@H](Cc2ccccc2)NC(=O)[C@H](Cc2ccccc2)NC1=O [compound 64] | > 10000 |  |
| CCC[C@@H]1NCCOc2ccccc2CCCNC(=O)[C@@H](Cc2ccccc2)NC(=O)C2(CCCC2)NC1=O [compound 67] | 100 to 1000 |  |
| CCC[C@@H]1NCCOc2ccccc2CCCNC(=O)[C@@H](Cc2ccccc2)NC(=O)[C@H](CCCCN)NC1=O [compound 68] | 1000 to 10000 |  |
| C[C@@H]1NCCOc2ccccc2CCCNC(=O)[C@@H](Cc2ccccc2)NC(=O)CN(C)C1=O [compound 72] | 1000 to 10000 |  |
| CN1CC(=O)N[C@H](Cc2ccccc2)C(=O)NCCCc2ccccc2OCCN[C@@H](CCC(=O)O)C1=O [compound 73] | > 10000 |  |
| CN1CC(=O)N[C@H](Cc2ccccc2)C(=O)NCCCc2ccccc2OCCN[C@@H](CCCCN)C1=O [compound 74] | 1000 to 10000 |  |
| CN1CC(=O)N[C@H](Cc2ccccc2)C(=O)NCCCc2ccccc2OCCN[C@@H](CO)C1=O [compound 76] | > 10000 |  |
| CN1CC(=O)NC(Cc2ccccc2)C(=O)NCCCc2ccccc2OCCNCC1=O (centres unmarked) [compound 80] | > 10000 |  |
| CCCC1NCCOCCNC(=O)C(Cc2ccccc2)NC(=O)CN(C)C1=O (centres unmarked) [compound 81] | > 10000 |  |
| CCCC1NCCC#CCCNC(=O)C(Cc2ccccc2)NC(=O)CN(C)C1=O (centres unmarked) [compound 82] | > 10000 |  |
| CCCC1NCCC=CCCNC(=O)C(Cc2ccccc2)NC(=O)CN(C)C1=O (centres unmarked) [compound 83] | > 10000 |  |
| CCCC1NCc2cccc(c2)CNC(=O)C(Cc2ccccc2)NC(=O)CN(C)C1=O (centres unmarked) [compound 84] | 1000 to 10000 |  |
| CCCC1NCc2cccc(c2)CCNC(=O)C(Cc2ccccc2)NC(=O)CN(C)C1=O (centres unmarked) [compound 85] | > 10000 |  |

| Structure (SMILES) | Ki [1] [nM] | Ki [2] [nM] |
| --- | --- | --- |
| CCCC1NCc2csc(n2)CNC(=O)C(Cc2ccccc2)NC(=O)CN(C)C1=O (centres unmarked) [compound 86] | > 10000 |  |
| CC(C)C[C@@H]1NCCOc2ccccc2CCCNC(=O)[C@H](Cc2ccc(O)cc2)NC(=O)C2(CCCC2)NC1=O [compound 88] | 1000 to 10000 |  |
| CC(C)C[C@@H]1NCCOc2ccccc2CCCNC(=O)[C@H](Cc2c[nH]c3ccccc23)NC(=O)C2(CCCC2)NC1=O [compound 89] | 1000 to 10000 |  |
| CC(C)C[C@@H]1NCCOc2ccccc2CCCNC(=O)[C@H](CCc2ccccc2)NC(=O)C2(CCCC2)NC1=O [compound 90] | 1000 to 10000 |  |
| CC(C)CC1NCCOc2ccccc2CCCNC(=O)C(CCCCN)NC(=O)C2(CCCC2)NC1=O (centres unmarked) [compound 91] | > 10000 |  |
| CC(C)C[C@@H]1NCCOc2ccccc2CCCNC(=O)[C@H](CCC(=O)O)NC(=O)C2(CCCC2)NC1=O [compound 92] | > 10000 |  |
| CC(C)CC1NCCOc2ccccc2CCCNC(=O)C(Cc2ccccc2)NC(=O)C(C)NC1=O (centres unmarked) [compound 93] | 1000 to 10000 |  |
| CC(C)C[C@@H]1NCCOc2ccccc2CCCNC(=O)[C@H](Cc2ccccc2)NC(=O)[C@@H](C)NC1=O [compound 94] | 1000 to 10000 |  |
| CC(C)C[C@@H]1NCCOc2ccccc2CCCNC(=O)[C@H](Cc2ccccc2)NC(=O)C(C)(C)NC1=O [compound 95] | 1000 to 10000 |  |
| CC(C)CC1NCCOc2ccccc2CCCNC(=O)C(Cc2ccccc2)NC(=O)C2(CCCC2)NC1=O (centres unmarked) [compound 96] | > 10000 |  |
| CC(C)C[C@H]1NCCOc2ccccc2CCCNC(=O)[C@@H](Cc2ccccc2)NC(=O)C2(CCCC2)NC1=O [compound 98] | > 10000 |  |
| C[C@@H]1NCCOc2ccccc2CCCNC(=O)[C@H](Cc2ccccc2)NC(=O)C2(CCCC2)NC1=O [compound 100] | 100 to 1000 |  |
| CCCC[C@@H]1NCCOc2ccccc2CCCNC(=O)[C@H](Cc2ccccc2)NC(=O)C2(CCCC2)NC1=O [compound 101] | 100 to 1000 |  |
| O=C1NC2(CCCC2)C(=O)N[C@@H](Cc2ccccc2)C(=O)NCCCc2ccccc2OCCN[C@H]1Cc1ccccc1 [compound 102] | 100 to 1000 |  |
| NCCCC[C@@H]1NCCOc2ccccc2CCCNC(=O)[C@H](Cc2ccccc2)NC(=O)C2(CCCC2)NC1=O [compound 103] | > 10000 |  |
| O=C(O)CC[C@@H]1NCCOc2ccccc2CCCNC(=O)[C@H](Cc2ccccc2)NC(=O)C2(CCCC2)NC1=O [compound 104] | > 10000 |  |
| O=C1NC2(CCCC2)C(=O)N[C@@H](Cc2ccccc2)C(=O)NCCCc2ccccc2OCCN[C@H]1CO [compound 105] | 100 to 1000 |  |
| O=C1CNCCOc2ccccc2CCCNC(=O)C(Cc2ccccc2)NC(=O)C2(CCCC2)N1 (centres unmarked) [compound 112] | 1000 to 10000 |  |
| CC(C)CC1NCc2ccc(cc2)CCNC(=O)C(Cc2ccccc2)NC(=O)C2(CCCC2)NC1=O (centres unmarked) [compound 115] | > 10000 |  |
| CC(C)C[C@@H]1NCCOc2ccccc2CCCNC(=O)[C@@H](Cc2ccccc2)NC(=O)[C@@H](C)N(C)C1=O [compound 118] | 10 to 100 |  |
| C[C@@H]1C(=O)N[C@H](Cc2ccccc2)C(=O)NCCCc2ccccc2OCCN[C@@H]([C@@H](C)O)C(=O)N1C [compound 119] | 100 to 1000 |  |

| Structure (SMILES) | Ki [1] [nM] | Ki [2] [nM] |
| --- | --- | --- |
| CO[C@H](C)[C@@H]1NCCOc2ccccc2CCCNC(=O)[C@@H](Cc2ccccc2)NC(=O)[C@@H](C)N(C)C1=O [compound 120] | 10 to 100 |  |
| C[C@@H]1C(=O)N[C@H](Cc2ccccc2)C(=O)NCCCc2ccccc2OCCNC2(CC2)C(=O)N1C [compound 121] | > 10000 |  |
| O=C1NC2(CCCC2)C(=O)NC(Cc2ccccc2)C(=O)NCC=Cc2ccccc2OCCNC1Cc1ccc(F)cc1 (centres unmarked) [compound 125] | > 10000 |  |
| COc1ccc(CC2NCCOc3ccccc3C=CCNC(=O)C(Cc3ccccc3)NC(=O)C3(CCCC3)NC2=O)cc1 (centres unmarked) [compound 127] | 100 to 1000 |  |
| O=C1NC2(CCCC2)C(=O)NC(Cc2ccccc2)C(=O)NCC=Cc2ccccc2OCCNC1Cc1cccc2ccccc12 (centres unmarked) [compound 130] | 1000 to 10000 |  |
| O=C1NC2(CCCC2)C(=O)N[C@@H](Cc2ccccc2)C(=O)NC/C=C/c2ccccc2OCCN[C@H]1Cc1cccnc1 [compound 132] | > 1000 |  |
| CCC(C)C1NCCOc2ccccc2CCCNC(=O)C(Cc2ccccc2)NC(=O)C(C(C)C)N(C)C1=O (centres unmarked) [compound 144] | 100 to 1000 |  |
| CCC(C)C1NCCOc2ccccc2CCCNC(=O)C(Cc2ccccc2)NC(=O)C(CC(C)C)N(C)C1=O (centres unmarked) [compound 147] | > 1000 |  |
| CC[C@H](C)[C@@H]1NCCOc2ccccc2CCCNC(=O)[C@@H](Cc2ccccc2)NC(=O)[C@H](CC(C)C)N(C)C1=O [compound 148] | > 1000 |  |
| CCC(C)C1NCCOc2ccccc2CCCNC(=O)C(Cc2ccccc2)NC(=O)C(C(C)CC)N(C)C1=O (centres unmarked) [compound 149] | 1000 to 10000 |  |
| CC[C@H](C)[C@@H]1NCCOc2ccccc2CCCNC(=O)[C@@H](Cc2ccccc2)NC(=O)[C@@H](CO)NC1=O [compound 151] | > 1000 |  |
| CCC(C)C1NC(=O)C2(CCCC2)NC(=O)C(CC(C)C)NCCOc2ccccc2C=CCNC1=O (centres unmarked) [compound 166] |  | > 10000 |
| CCC(C)C1NC(=O)C2(CCCC2)NC(=O)C(CC(C)C)NCCOc2ccccc2C=CCNC1=O (centres unmarked) [compound 167] |  | > 10000 |
| CC[C@H](C)[C@@H]1NCCOc2ccccc2CCCNC(=O)[C@@H](CCc2ccccc2)NC(=O)[C@@H](C)N(C)C1=O [compound 169] |  | 10 to 100 |
| CC[C@H](C)[C@@H]1NCCOc2ccccc2CCCNC(=O)[C@@H](Cc2ccncc2)NC(=O)[C@@H](C)N(C)C1=O [compound 171] |  | 10 to 100 |
| CCC1NC(=O)C(C)N(C)C(=O)C(C(C)CC)NCCOc2ccccc2CCCNC1=O (centres unmarked) [compound 172] |  | > 10000 |
| CCCC1NC(=O)C(C)N(C)C(=O)C(C(C)CC)NCCOc2ccccc2CCCNC1=O (centres unmarked) [compound 173] |  | 100 to 1000 |
| CC[C@H](C)[C@@H]1NCCOc2ccccc2CCCNC(=O)[C@@H](C(C)C)NC(=O)[C@@H](C)N(C)C1=O [compound 174] |  | 100 to 1000 |
| CC[C@@H](C)[C@H]1NC(=O)[C@@H](C)N(C)C(=O)[C@H]([C@@H](C)CC)NCCOc2ccccc2CCCNC1=O [compound 175] |  | 100 to 1000 |
| CC[C@H]1NC(=O)[C@@H](C)N(C)C(=O)[C@H]([C@@H](C)CC)NCCOc2ccccc2CCCNC1=O [compound 205] |  | > 10000 |
